From US9012448B2, “1,2,4-triazolo[4,3-a]pyridine derivatives and their use as positive allosteric modulators of MGLUR2 receptors” (Janssen Pharmaceuticals, Inc., priority 2010, dated 2015) come the findings set out here.

The target of series [1] is T1, human mGluR2 receptor (Homo sapiens, UniProt Q14416).
T1 construct: expressed in transfected cells; host or cells: CHO cells (membrane preparation)
The series is described as follows: [35S]GTPγS binding assay, hmGluR2 PAM (membranes from transfected CHO cells, glutamate at EC20). Type of series: biochemical. As to conditions: for EC50: in presence of mGluR2 agonist glutamate at a predetermined EC20 concentration, pEC50 = -log EC50 (M), at least 8 concentrations; for GTPγS - hmGluR2 PAM Emax / Emax: relative maximal effect (maximal % effect relative to the control glutamate response), glutamate at EC20. The source says:
The compounds provided in the present invention are positive allosteric modulators of mGluR2. These compounds appear to potentiate glutamate responses by binding to an allosteric site other than the glutamate binding site. The response of mGluR2 to a concentration of glutamate is increased when compounds of Formula (I) are present. Compounds of Formula (I) are expected to have their effect substantially at mGluR2 by virtue of their ability to enhance the function of the receptor. The effects of positive allosteric modulators tested at mGluR2 using the [^35S]GTPγS binding assay method described below and which is suitable for the identification of such compounds, and more particularly the compounds according to Formula (I), are shown in Table 3.
The [^35S]GTPγS binding assay is a functional membrane-based assay used to study G-protein coupled receptor (GPCR) function whereby incorporation of a non-hydrolysable form of GTP, [^35S]GTPγS (guanosine 5′-triphosphate, labelled with […] ^35S), is measured. The G-protein a subunit catalyzes the exchange of guanosine 5′-diphosphate (GDP) by guanosine triphosphate (GTP) and on activation of the GPCR by an agonist, [^35S]GTPγS, becomes incorporated and cannot be cleaved to continue the exchange cycle (Harper (1998) Current Protocols in Pharmacology 2.6.1-10, John Wiley & Sons, Inc.). […] Here we describe the use of the [^35S]GTPγS binding assay using membranes from cells transfected with the human mGluR2 receptor and adapted from Schaffhauser et al. ((2003) Molecular Pharmacology 4:798-810) for the detection of the positive allosteric modulation (PAM) properties of the compounds of this invention.
CHO-cells were cultured to pre-confluence and stimulated with 5 mM butyrate for 24 h. Cells were then collected by scraping in PBS and cell suspension was centrifuged (10 min at 4000 RPM in benchtop centrifuge). Supernatant was discarded and pellet gently resuspended in 50 mM Tris-HCl, pH 7.4 by mixing with a vortex and pipetting up and down. The suspension was centrifuged at 16,000 RPM (Sorvall RC-5C plus rotor SS-34) for 10 minutes and the supernatant discarded. The pellet was homogenized in 5 mM Tris-HCl, pH 7.4 using an ultra-turrax homogenizer and centrifuged again (18,000 RPM, 20 min, 4° C.). The final pellet was resuspended in 50 mM Tris-HCl, pH 7.4 and stored at −80° C. in appropriate aliquots before use. Protein concentration was determined by the Bradford method (Bio-Rad, USA) with bovine serum albumin as standard.
Measurement of mGluR2 positive allosteric modulatory activity of test compounds was performed as follows. Test compounds and glutamate were diluted in assay buffer containing 10 mM HEPES acid, 10 mM HEPES salt, pH 7.4, 100 mM NaCl, 3 mM MgCl2 and 10 μM GDP. Human mGlu2 receptor-containing membranes were thawed on ice and diluted in assay buffer supplemented with 14 μg/ml saponin. Membranes were pre-incubated with compound alone or together with a predefined (˜EC20) concentration of glutamate (PAM assay) for 30 min at 30° C. After addition of [^35S]GTPγS (f.c. 0.1 nM), assay mixtures were shaken briefly and further incubated to allow [^35S]GTPγS incorporation on activation (30 minutes, 30° C.). Final assay mixtures contained 7 μg of membrane protein in 10 mM HEPES acid, 10 mM HEPES salt, pH 7.4, 100 mM NaCl, 3 mM MgCl2, 10 μM GDP and 10 μg/ml saponin. Total reaction volume was 200 μl. Reactions were terminated by rapid filtration through Unifilter-96 GF/B plates (Perkin Elmer, Massachusetts, USA) using a 96-well filtermate universal harvester. Filters were washed 6 times with ice-cold 10 mM NaH2PO4/10 mM Na2HPO4, pH 7.4. Filters were then air-dried, and 40 μl of liquid scintillation cocktail (Microscint-O) was added to each well. Membrane-bound radioactivity was counted in a Microplate Scintillation and Luminescence Counter from Perkin Elmer. […]

The term EC50 denotes the concentration giving half of the maximal effect. One may read the melting point as the temperature of the solid-liquid transition. In general, Emax refers to the greatest response seen or fitted, relative to the assay's reference.

T1 sequence (Q14416 19-872): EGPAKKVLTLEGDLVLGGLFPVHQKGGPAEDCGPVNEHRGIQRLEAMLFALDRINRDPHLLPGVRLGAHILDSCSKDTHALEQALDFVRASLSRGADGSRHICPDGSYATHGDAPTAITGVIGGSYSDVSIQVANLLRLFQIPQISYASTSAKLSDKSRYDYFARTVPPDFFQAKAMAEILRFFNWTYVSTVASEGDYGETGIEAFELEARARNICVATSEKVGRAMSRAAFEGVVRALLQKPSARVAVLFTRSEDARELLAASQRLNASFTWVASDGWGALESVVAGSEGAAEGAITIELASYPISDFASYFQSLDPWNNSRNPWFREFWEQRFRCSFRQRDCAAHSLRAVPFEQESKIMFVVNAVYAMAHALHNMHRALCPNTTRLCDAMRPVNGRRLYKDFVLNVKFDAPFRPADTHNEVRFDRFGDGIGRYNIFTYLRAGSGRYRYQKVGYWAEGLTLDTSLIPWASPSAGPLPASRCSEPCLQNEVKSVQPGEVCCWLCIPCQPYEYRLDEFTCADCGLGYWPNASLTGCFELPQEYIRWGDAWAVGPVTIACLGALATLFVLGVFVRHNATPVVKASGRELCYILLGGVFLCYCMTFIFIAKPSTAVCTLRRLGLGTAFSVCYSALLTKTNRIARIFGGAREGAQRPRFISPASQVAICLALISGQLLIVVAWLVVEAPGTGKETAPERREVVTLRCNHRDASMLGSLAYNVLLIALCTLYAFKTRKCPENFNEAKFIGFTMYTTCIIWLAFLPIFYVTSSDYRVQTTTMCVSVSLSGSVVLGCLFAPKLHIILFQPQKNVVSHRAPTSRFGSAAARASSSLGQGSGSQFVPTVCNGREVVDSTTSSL

Regarding `CC1(c2ccccc2F)COCCN1Cc1ccn2c(CC3CC3)nnc2c1C(F)(F)F` (single isomer, unassigned) [Compound 4a, 3-(Cyclopropylmethyl)-7-{[(3*R)-3-(2-fluorophenyl)-3-methylmorpholin-4-yl]methyl}-8-(trifluoromethyl)[1,2,4]triazolo[4,3-a]pyridine], in series [1], the concentration for a half-maximal effect (EC50) is 1.82e-07 M and the “GTPγS - hmGluR2 PAM Emax” value is recorded as 108%.

Regarding `CC1(c2ccccc2F)COCCN1Cc1ccn2c(CC3CC3)nnc2c1C(F)(F)F` (single isomer, unassigned) [Compound 4b, 3-(Cyclopropylmethyl)-7-{[(3*S)-3-(2-fluorophenyl)-3-methylmorpholin-4-yl]methyl}-8-(trifluoromethyl)[1,2,4]triazolo[4,3-a]pyridine], in series [1], the EC50 is 1.95e-07 M and the “GTPγS - hmGluR2 PAM Emax” value was found to be 52%.

In the case of `CC1(c2ccc(F)cc2F)COCCN1Cc1ccn2c(CC3CC3)nnc2c1C(F)(F)F` (single isomer, unassigned) [Compound 5a, 3-(Cyclopropylmethyl)-7-{[(3*R)-3-(2,4-difluorophenyl)-3-methylmorpholin-4-yl]methyl}-8-(trifluoromethyl)[1,2,4]triazolo[4,3-a]pyridine], in series [1], the 50% effective concentration (EC50) was 2e-07 M and the “GTPγS - hmGluR2 PAM Emax” value was 101%.

As for `CC1(c2ccc(F)cc2F)COCCN1Cc1ccn2c(CC3CC3)nnc2c1C(F)(F)F` (single isomer, unassigned) [Compound 5b, 3-(Cyclopropylmethyl)-7-{[(3*S)-3-(2,4-difluorophenyl)-3-methylmorpholin-4-yl]methyl}-8-(trifluoromethyl)[1,2,4]triazolo[4,3-a]pyridine], in series [1], the 50% effective concentration (EC50) was 1.38e-07 M and the “GTPγS - hmGluR2 PAM Emax” value is recorded as 126%.

Consider `FC(F)(F)c1c(CN2CCOC[C@H]2c2ccccc2)ccn2c(CC3CC3)nnc12` [Compound 1, 3-(Cyclopropylmethyl)-7-[[(3R)-3-phenyl-4-morpholinyl]methyl]-8-(trifluoromethyl)-1,2,4-triazolo[4,3-c]pyridine], for which the melting point is 69.2 °C. For the same molecule, in series [1], the EC50 is 1.7e-07 M and the maximal effect (Emax) was found to be 238%.

Turning to `FC(F)(F)c1c(CN2CCOC[C@@H]2c2ccccc2)ccn2c(CC3CC3)nnc12` [Compound 2, 3-(Cyclopropylmethyl)-7-[[(3S)-3-phenyl-4-morpholinyl]methyl]-8-(trifluoromethyl)-1,2,4-triazolo[4,3-c]pyridine], in series [1], the EC50 was 4.27e-07 M and the Emax worked out at 136%.
